Assay results published in US12544419B2, “Targeted amatoxin conjugate for the treatment of solid tumors” (Heidelberg Pharma Research GmbH, priority 2018, dated 2026).

Experiments:
JIMT-1 cells = assay: Cell viability assay (BrdU incorporation), JIMT-1; type: cell-based; conditions: conjugated to Trastuzumab D265C
Protocol: (§1) Cytotoxic activity of anti PSMA and anti-Her2 amatoxin conjugates was evaluated in vitro with target-positive tumor cell lines and the chemiluminescent BrdU incorporation assay (Roche Diagnostics). Cell viability was determined after 96 h incubation with different concentrations of conjugates at 37° C. and 5% CO2 by measurement of fixed and permeabilized cells with an anti-BrdU-HRP antibody in a BMG Labtech Optima microplate reader. EC50 value of dose-response curve was calculated by Graphpad Prism 4.0 software.
JIMT-1 is a solid cancer cell line derived from a breast ductal adenocarcinoma.

LNCaP cells = assay: Cell viability assay (BrdU incorporation), LNCaP; type: cell-based; conditions: conjugated to anti-PSMA antibody h3/F11 D265C
Protocol: as §1
LNCaP is a solid prostate adenocarcinoma cell line derived from a left supraclavicular lymph node metastasis.

Raji cells = assay: CellTiter-Glo 2.0 cell viability assay, Raji; type: cell-based, human; conditions: conjugated to antiCD19 antibody chiBCE19 D265C
Protocol: Cytotoxic activity of anti CD19 amatoxin conjugates on target positive cells was assessed by CellTiter-Glo 2.0 Luminescent Cell Viability Assay (Promega, Madison, WI) in 96-well tissue culture plates. Cell viability was determined after 96 h incubation with different concentrations of conjugates at 37° C. and 5% CO2. Data analysis was performed with GraphPad Prism 7 (GraphPad Software, Inc, La Jolla, CA) software to plot curve fits and perform statistical analyses. Nonlinear variable slope curve-fits were plotted as log[ADC] vs. Response and EC50 values were generated.
Raji is a cell line derived from Burkitt's lymphoma.

[1] = system: Jimt-1 breast cancer cells (s.c. xenograft); assay: Jimt-1 xenograft model, tumor volume; type: in vivo, NMRI nude mice; conditions: conjugated to Trastuzumab D265C; JIMT xenografts; single intravenous dose
Protocol: Jimt-1 xenograft model: Female NMRI nude mice were inoculated with 5×10^6 Jimt-1 breast cancer cells per mouse subcutaneously in the right flank. At a mean tumor vol. of ˜120 mm^3, animals were allocated to groups on day 0. On the same day the animals received a single intravenous dose of amanitin based anti-Her2 antibody drug conjugates (ADCs) Tumor volume and body weight were determined twice per week.
(§2) Tumor growth was monitored by caliper measurement. Tumor size was calculated according to the equation: volume=W^2×L×0.5 (L=length and W=perpendicular width of the tumor, L>W).

[2] = system: LNCap prostate carcinoma cells (s.c. xenograft); assay: LnCap xenograft model, tumor volume; type: in vivo, CB17 SCID mice; conditions: conjugated to anti-PSMA antibody h3/F11 D265C; LnCap xenografts; single intravenous dose
Protocol: LnCap xenograft model: Male CB17 SCID mice were inoculated with 2.5×10^6 LNCap prostate carcinoma cells per mouse subcutaneously in the right flank. At a mean tumor vol. of ˜150 mm^3, animals were allocated to groups on day 0. On the same day the animals received a single intravenous dose of amanitin based anti-PSMA antibody drug conjugates (ADCs) Tumor volume and body weight were determined twice per week.
as §2

[3] = system: Raji Burkitt's lymphoma cells (s.c. xenograft); assay: Raji s.c. xenograft model (solid tumor), tumor volume; type: in vivo, CB17 SCID mice; conditions: for Efficacy Raji sc: anti-CD19 conjugate, grade, key not given; for tumor shrinking activity (FIG. 7): conjugated to chiBCE19 D265C, Raji cells injected s.c., single intravenous dose
Protocol: Raji xenograft model: Female CB17 SCID mice were inoculated with 2.5×10^6 Raji Burkitt's lymphoma cells per mouse subcutaneously in the right flank. At a mean tumor vol. of ˜80 mm^3, animals were allocated to groups on day 0. On the same day the animals received a single intravenous dose of amanitin based anti-CD19 antibody drug conjugates (ADCs) Tumor volume and body weight were determined twice per week.
as §2
Growth inhibition experiments were then carried out with tumor xenografts of Raji cells injected into mice s.c. This approach leads to tumors that mimic the phenotype of a solid tumor.

[4] = system: Raji Luc cells (i.v. xenograft); assay: Intravenous Raji-Luc xenograft (liquid tumor), survival; type: in vivo, CB17 SCID mice; conditions: conjugated to chiBCE19 D265C; i.v. injected Raji Luc cells; single i.v. dose
Protocol: (§3) […]: Female CB17 SCID mice were inoculated with 2.5×10^6 Raji Burkitt's lymphoma cells per mouse into the tail vein. Animals were allocated to groups on day 0. On day 3 after tumor cell injection, the animals received a single intravenous dose of amanitin based anti-CD19 antibody drug conjugates (ADCs). Body weight was determined twice per week. Survival was monitored daily.
(§4) […]: Female CB17 SCID mice were inoculated with 5×10^6 Nalm-6 B Cell precursor leukemia cells per mouse into the tail vein. Animals were allocated to groups on day 0. On day 3 after tumor cell injection, the animals received a single intravenous dose of amanitin based anti-CD19 antibody drug conjugates (ADCs). Body weight was determined twice per week. Survival was monitored daily.
(§5) Survival rates were then investigated with tumor xenografts of Raji cells (with or without transfected luciferase) or Nalm-6 cells obtained by i.v. administration of the respective cells.
(§6) Raji is a cell line derived from Burkitt's lymphoma, Nalm-6 is a cell line derived from acute lymphoblastic leukemia (ALL). Results are shown in the Kaplan Meier curves of FIG. 6.
(§7) Survival experiments were carried out with i.v. injected Raji Luc (FIG. 6A) or NALM6 (FIG. 6B) cells.

[5] = system: Nalm-6 cells (i.v. xenograft); assay: Intravenous Nalm-6 xenograft model (liquid tumor), survival; type: in vivo, CB17 SCID mice; conditions: conjugated to chiBCE19 D265C; i.v. injected NALM6 cells; single i.v. dose
Protocol: as §3, §4, §5, §6, §7

[6] = Highest non-severely toxic dose, DIG (Digoxigenin antibody) conjugates, Cyno; conditions: Digoxigenin antibody conjugate (no cross reaction with host targets); Cynomolgus monkey
RNA polymerase III = RNA polymerase III (Homo sapiens, UniProt O14802+Q9NW08); conditions: cited from earlier work
RNA polymerase I = RNA polymerase I (Homo sapiens, UniProt O95602+Q9H9Y6); conditions: cited from earlier work

Molecule | potency in cell viability assay (FIG. 1) (JIMT-1 cells) | potency in cell viability assay (FIG. 3) (LNCaP cells) | potency in cell viability assay (FIG. 5) (Raji cells) | tumor shrinking activity (FIG. 2) [1] | tumor shrinking activity (FIG. 4) [2] | Efficacy Raji sc [3] | tumor shrinking activity (FIG. 7) [3] | potency in survival experiment (FIG. 6A) [4] | potency in survival experiment (FIG. 6B) [5] | HNSTD DIG Cyno [6] [mg/kg] | binding to RNA polymerase III (RNA polymerase III) | binding to RNA polymerase I (RNA polymerase I)
CC[C@H](C)[C@@H]1NC(=O)CNC(=O)[C@@H]2Cc3c([nH]c4cc(OCc5ccc(NC(=O)[C@H](C)NC(=O)[C@@H](NC(=O)CCN6C(=O)C=CC6=O)C(C)C)cc5)ccc34)[S@+]([O-])CC(NC(=O)CNC1=O)C(=O)N[C@@H](CC(N)=O)C(=O)CN1CC(O)C[C@H]1C(=O)N[C@@H]([C@@H](C)[C@@H](O)CO)C(=O)N2 (stereo partly shown) [30.1699] | comparable potency | comparable potency | comparable potency | strong tumor shrinking activity | strong tumor shrinking activity | ∘ | strong tumor shrinking activity | lower potency than the Trp variant 30.2115 | lower potency than the Trp variant 30.2115 | >3 | – | –
CC[C@H](C)[C@@H]1NC(=O)CNC(=O)[C@@H]2Cc3c([nH]c4cc(O)ccc34)[S@+]([O-])CC(NC(=O)CNC1=O)C(=O)N[C@@H](CC(=O)NCc1ccc(NC(=O)[C@H](C)NC(=O)C(NC(=O)CCN3C(=O)C=CC3=O)C(C)C)cc1)C(=O)CN1CC(O)C[C@H]1C(=O)N[C@@H]([C@@H](C)[C@@H](O)CO)C(=O)N2 (stereo partly shown) [30.2060] | comparable potency | comparable potency | comparable potency | strong tumor shrinking activity | strong tumor shrinking activity | ∘ | strong tumor shrinking activity | – | – | <7.5 | – | –
α-amanitin [Alpha-amanitin] | – | – | – | – | – | – | – | – | – | – | only slightly binds | no binding
CC[C@H](C)[C@@H]1NC(=O)CNC(=O)[C@@H]2Cc3c([nH]c4cc(O)ccc34)SCC(NC(=O)CNC1=O)C(=O)N[C@@H](CC(=O)NCc1ccc(NC(=O)[C@H](C)NC(=O)C(NC(=O)CCN3C(=O)C=CC3=O)C(C)C)cc1)C(=O)CN1CC(O)C[C@H]1C(=O)N[C@@H]([C@@H](C)[C@@H](O)CO)C(=O)N2 (stereo partly shown) [30.2347] | comparable potency | comparable potency | comparable potency | strong tumor shrinking activity | strong tumor shrinking activity | ∘ | strong tumor shrinking activity | – | – | <5 | – | –
CC[C@H](C)[C@@H]1NC(=O)CNC(=O)[C@@H]2Cc3c([nH]c4cc(OCc5ccc(NC(=O)[C@H](C)NC(=O)[C@@H](NC(=O)CCN6C(=O)C=CC6=O)C(C)C)cc5)ccc34)SCC(NC(=O)CNC1=O)C(=O)N[C@@H](CC(N)=O)C(=O)CN1CC(O)C[C@H]1C(=O)N[C@@H]([C@@H](C)[C@@H](O)CO)C(=O)N2 (stereo partly shown) [30.2371] | comparable potency | comparable potency | comparable potency | strong tumor shrinking activity | strong tumor shrinking activity | ∘ | strong tumor shrinking activity | – | – | >2 | – | –
CC[C@H](C)[C@@H]1NC(=O)CNC(=O)[C@@H]2Cc3c([nH]c4ccccc34)SCC(NC(=O)CNC1=O)C(=O)N[C@@H](CC(=O)NCc1ccc(NC(=O)[C@H](C)NC(=O)C(NC(=O)CCN3C(=O)C=CC3=O)C(C)C)cc1)C(=O)CN1CC(O)C[C@H]1C(=O)N[C@@H]([C@@H](C)[C@@H](O)CO)C(=O)N2 (stereo partly shown) [30.2115, reference compound] | slightly decreased potency | strongly decreased potency | comparable potency | significantly decreased tumor shrinking activity | significantly decreased tumor shrinking activity | – | significantly decreased tumor shrinking activity | – | – | <7.5 | – | –
CC[C@H](C)[C@@H]1NC(=O)CNC(=O)[C@@H]2Cc3c([nH]c4ccccc34)[S+]([O-])CC(NC(=O)CNC1=O)C(=O)N[C@@H](CC(=O)NCc1ccc(NC(=O)[C@H](C)NC(=O)[C@@H](NC(=O)CCN3C(=O)C=CC3=O)C(C)C)cc1)C(=O)CN1CC(O)C[C@H]1C(=O)N[C@@H]([C@@H](C)[C@@H](O)CO)C(=O)N2 (stereo partly shown) [30.2183, reference compound] | strongly decreased potency | strongly decreased potency | comparable potency | significantly decreased tumor shrinking activity | significantly decreased tumor shrinking activity | – | significantly decreased tumor shrinking activity | – | – | – | – | –
